Reference: patent US20250090603A1, “COMPOSITIONS CONTAINING BACILLAENE PRODUCING BACTERIA OR PREPARATIONS THEREOF” (Evonik Operations GmbH, priority 2019, published 2025)

What was measured:
[1] = system: S. enterica subsp. enterica enteritidis DSM 14221; type: cell-based, Salmonella enterica
[2] = system: Vibrio parahaemolyticus DSM 10027; type: cell-based; conditions: concluded from experiments with knock-out mutants

C/C(=C/C=C/C=C/C(C)C(=O)O)NC(=O)CC(O)\C(C)=C/C=C\C=C(C)\C=C\C=C/C=C/CNC(=O)C(O)CC(C)C (centres unmarked) [bacillaene]
inhibition of growth of Salmonella enterica (in words) [1]: effectively inhibit the growth | inhibition of growth of Vibrio parahaemolyticus (in words) [2]: effectively inhibit the growth
